Measured values as given in patent US20240110004A1 (Northwestern University, priority 2022, published 2024).
Where no end group is shown, it is not given here.

Key:
R6/2 mice = assay: Western blot of DARPP-32, PSD95 and BDNF in striatal lysates; format: in vivo, mouse
Source text: FIG. 32A-32C: Histograms of Quantified Western Blot Results for Protein Levels (blots not shown). Actin was used as the loading control in the Western Blot, results are therefore depicted as ratios of the protein of interest signal relative to the actin signal in each sample. FIG. 32A depicts DARPP-32 levels in striatal lysates. p-value for: WT veh as compared to R62 veh: <0.0001; WT+P1 as compared to R62 veh: <0.0001; R62 veh as compared to R62+HV3-TAT: 0.0493; R62 veh as compared to R62+P1: 0.0027; R62+P1 as compared to R62+HV3-TAT: 0.7733. FIG. 32B depicts PSD95 levels in striatal lysates. p-value for: WT veh as compared to R62 veh: 0.0034; WT+P1 as compared to R62 veh: <0.0001; R62 veh as compared to R62+HV3-TAT: 0.0191; R62 veh as compared to R62+P1: <0.0001; R62+P1 as compared to R62+HV3-TAT: 0.1442. FIG. 32C depicts BDNF levels in striatal lysates. p-value for: WT veh as compared to R62 veh: <0.0001; WT+P1 as compared to R62 veh: <0.0001; R62 veh as compared to R62+HV3-TAT: 0.0120; R62 veh as compared to R62+P1: <0.0001; R62+P1 as compared to R62+HV3-TAT: 0.0257.
In vivo Efficacy Methods—Levels of Proteins of Interest: To further assess the efficacy of P1 in modulating HD neuropathology, the levels of cAMP-regulated phosphoprotein 32 kDa (DARPP-32), post-synaptic density protein (PSD95), and brain derived neurotrophic factor (BDNF) were determined in medium spiny neurons, each of which are decreased in the striatum of HD patients and R6/2 mouse models. Striatal lysates were generated from frozen striatal tissue from un-perfused sacrificed mice. Using a plate reader, protein concentrations were determined by protein assay dye (Bio-Rad). Protein stocks in lysis buffer were mixed with Laemmli buffer, loaded on SDS-PAGE, and transferred onto nitrocellulose membranes (Invitrogen). Membranes were probed with the primary antibodies for actin, DARPP-32, PSD95, and BDNF, and respective IgG-HRP secondary antibodies, followed by visualization of HRP with a blot scanner.

Procedure for enzymes: Stability of PLPs Methods I: For enzyme-induced cleavage experiments, the molar concentration of enzymes was set to 0.1 μM. The concentration of side-chain peptides (having sequence identity of SEQ ID: 1) varied in the range of 50-200 μM. For each enzyme, temperature was set for optimal enzyme activity. In a typical experiment, P1 or HV3-TAT was dissolved in DPBS (pH 7.4) or hydrochloric acid solution (pH 2), to obtain a stock polymer/peptide solution with a peptide concentration of 200 μM. Next, 5 μL of enzyme stock solution (10 μM) was added into 500 μL of the polymer/peptide solution which was subsequently stirred in a preheated oil bath at 37° C. In this case, the molar ratio of peptide substrate to enzymes was 2000:1. During the cleavage, aliquots were taken for HPLC analysis at predetermined time points. Each degradation experiment was repeated three times. Enzyme pretreated P1 was also run on SDS-PAGE and visualized with Coomassie Blue staining.

P1: PLP homopolymer having peptide side chains of SEQ ID: 1 (HVLVMSATRR), made by ROMP of norbornene peptide monomer M1 (also: side chains of polynorbornene homopolymer (PLP, ROMP of norbornene peptide monomer))
BDNF protein levels in striatal lysates (R6/2 mice; compared to the saline control): Significant increases
PSD95 protein levels in striatal lysates (R6/2 mice; compared to the saline control): Significant increases
DARPP-32 levels in striatal lysates (immunoblotting) (R6/2 mice; over saline control): significantly increased DARPP-32 levels
molecular weight on SDS-PAGE after enzyme treatment (enzymes): maintained molecular weight
